Data reported in the NIST ThermoML archive (doi:10.1016/j.fluid.2009.01.012).
Numbers after ± are expanded uncertainties.

Conditions: DTA

CC(C)C[P+](C)(CC(C)C)CC(C)C.Cc1ccc(S(=O)(=O)[O-])cc1 [triisobutylmethylphosphonium p-toluenesulfonate]
Glass transition temperature: -47.6 ± 5 °C
